Paper PMC9150124, “Design of a Potent, Selective, and Brain-Penetrant Inhibitor of Wnt-Deactivating Enzyme Notum by Optimization of a Crystallographic Fragment Hit” (Journal of Medicinal Chemistry, 2022)

Key:
Test in all cases: SelectScreen kinase profiling, SSBK ZLyte SP Technology
Assay type in all cases: biochemical
[1] = molecular target: kinase named in conditions (Homo sapiens, UniProt O15075); details: DCAMKL1 (DCLK1), 10 μM
Description: (§1) Kinase selectivity screening was performed by Thermo Fisher Scientific (Paisley, U.K.) in their SelectScreen Biochemical Kinase Profiling Service. Assay information and data are presented in the Supporting Information.
(§2) Kinase selectivity screening was performed by ThermoFisher Scientific (Paisley, U.K.) in their SelectScreenTM
(§3) Biochemical Kinase Profiling service .

[2] = molecular target: kinase named in conditions (Homo sapiens, UniProt P08631); details: HCK, 10 μM
Description: as §1, §2, §3

[3] = molecular target: kinase named in conditions (Homo sapiens, UniProt P07949); details: RET, 10 μM
Description: as §1, §2, §3

[4] = molecular target: kinase named in conditions (Homo sapiens, UniProt P08581, Y1235D); details: MET (cMet) Y1235D, 10 μM
Description: as §1, §2, §3

[5] = molecular target: kinase named in conditions (Homo sapiens, UniProt P07949, Y791F); details: RET Y791F, 10 μM
Description: as §1, §2, §3

[6] = molecular target: kinase named in conditions (Homo sapiens, UniProt P23458); details: JAK1, 10 μM
Description: as §1, §2, §3

[7] = molecular target: kinase named in conditions (Homo sapiens, UniProt Q8IY84); details: NIM1K, 10 μM
Description: as §1, §2, §3

[8] = molecular target: kinase named in conditions (Homo sapiens, UniProt Q13177); details: PAK2 (PAK65), 10 μM
Description: as §1, §2, §3

[9] = molecular target: kinase named in conditions (Homo sapiens, UniProt P00519, F317L); details: ABL1 F317L, 10 μM
Description: as §1, §2, §3

[10] = molecular target: kinase named in conditions (Homo sapiens, UniProt P00533); details: EGFR (ErbB1), 10 μM
Description: as §1, §2, §3

[11] = molecular target: kinase named in conditions (Homo sapiens, UniProt Q9UQM7); details: CAMK2A (CaMKII alpha), 10 μM
Description: as §1, §2, §3

[12] = molecular target: kinase named in conditions (Homo sapiens, UniProt P11309); details: PIM1, 10 μM
Description: as §1, §2, §3

[13] = molecular target: kinase named in conditions (Homo sapiens, UniProt Q9BZL6); details: PRKD2 (PKD2), 10 μM
Description: as §1, §2, §3

[14] = molecular target: kinase named in conditions (Homo sapiens, UniProt P07949, V804E); details: RET V804E, 10 μM
Description: as §1, §2, §3

[15] = molecular target: kinase named in conditions (Homo sapiens, UniProt P34947); details: GRK5, 10 μM
Description: as §1, §2, §3

[16] = molecular target: kinase named in conditions (Homo sapiens, UniProt Q9H422); details: HIPK3 (YAK1), 10 μM
Description: as §1, §2, §3

[17] = molecular target: kinase named in conditions (Homo sapiens, UniProt Q02750); details: MAP2K1 (MEK1), 10 μM
Description: as §1, §2, §3

[18] = molecular target: kinase named in conditions (Homo sapiens, UniProt P78527); details: DNA-PK, 10 μM
Description: as §1, §2, §3

[19] = molecular target: kinase named in conditions (Homo sapiens, UniProt Q96BR1); details: SGKL (SGK3), 10 μM
Description: as §1, §2, §3

[20] = molecular target: kinase named in conditions (Homo sapiens, UniProt P05129); details: PRKCG (PKC gamma), 10 μM
Description: as §1, §2, §3

[21] = molecular target: kinase named in conditions (Homo sapiens, UniProt P35916); details: FLT4 (VEGFR3), 10 μM
Description: as §1, §2, §3

[22] = molecular target: kinase named in conditions (Homo sapiens, UniProt Q06187); details: BTK, 10 μM
Description: as §1, §2, §3

[23] = molecular target: kinase named in conditions (Homo sapiens, UniProt Q15303); details: ERBB4 (HER4), 10 μM
Description: as §1, §2, §3

[24] = molecular target: kinase named in conditions (Homo sapiens, UniProt P16234, V561D); details: PDGFRA V561D, 10 μM
Description: as §1, §2, §3

[25] = molecular target: kinase named in conditions (Homo sapiens, UniProt P51957); details: NEK4, 10 μM
Description: as §1, §2, §3

[26] = molecular target: kinase named in conditions (Homo sapiens, UniProt P06493); details: CDK1/cyclin B, 10 μM
Description: as §1, §2, §3

[27] = molecular target: kinase named in conditions (Homo sapiens, UniProt P43405); details: SYK, 10 μM
Description: as §1, §2, §3

[28] = molecular target: kinase named in conditions (Homo sapiens, UniProt O00141); details: SGK (SGK1), 10 μM
Description: as §1, §2, §3

[29] = molecular target: kinase named in conditions (Homo sapiens, UniProt P30530); details: AXL, 10 μM
Description: as §1, §2, §3

[30] = molecular target: kinase named in conditions (Homo sapiens, UniProt P16234); details: PDGFRA (PDGFR alpha), 10 μM
Description: as §1, §2, §3

[31] = molecular target: kinase named in conditions (Homo sapiens, UniProt Q15418); details: RPS6KA1 (RSK1), 10 μM
Description: as §1, §2, §3

[32] = molecular target: kinase named in conditions (Homo sapiens, UniProt Q56UN5); details: MAP3K19 (YSK4), 10 μM
Description: as §1, §2, §3

[33] = molecular target: kinase named in conditions (Homo sapiens, UniProt Q9P1W9); details: PIM2, 10 μM
Description: as §1, §2, §3

[34] = molecular target: kinase named in conditions (Homo sapiens, UniProt P22455); details: FGFR4, 10 μM
Description: as §1, §2, §3

SMILES: FC(F)(F)c1c(Cl)ccc(-n2ccnn2)c1Cl [8l, 1-(2,4-Dichloro-3-(trifluoromethyl)phenyl)-1H-1,2,3-triazole]
- inhibition at 10 µM [1]: 3%
- inhibition at 10 µM [2]: 10%
- inhibition at 10 µM [3]: 7%
- inhibition at 10 µM [4]: 0%
- inhibition at 10 µM [5]: 5%
- inhibition at 10 µM [6]: 2%
- inhibition at 10 µM [7]: 5%
- inhibition at 10 µM [8]: 5%
- inhibition at 10 µM [9]: 16%
- inhibition at 10 µM [10]: 1%
- inhibition at 10 µM [11]: -2%
- inhibition at 10 µM [12]: 6%
- inhibition at 10 µM [13]: 0%
- inhibition at 10 µM [14]: 4%
- inhibition at 10 µM [15]: -2%
- inhibition at 10 µM [16]: 3%
- inhibition at 10 µM [17]: -5%
- inhibition at 10 µM [18]: 0%
- inhibition at 10 µM [19]: 10%
- inhibition at 10 µM [20]: 12%
- inhibition at 10 µM [21]: 0%
- inhibition at 10 µM [22]: 21%
- inhibition at 10 µM [23]: 1%
- inhibition at 10 µM [24]: -3%
- inhibition at 10 µM [25]: 3%
- inhibition at 10 µM [26]: 4%
- inhibition at 10 µM [27]: 6%
- inhibition at 10 µM [28]: 5%
- inhibition at 10 µM [29]: 4%
- inhibition at 10 µM [30]: 13%
- inhibition at 10 µM [31]: 8%
- inhibition at 10 µM [32]: -5%
- inhibition at 10 µM [33]: 5%
- inhibition at 10 µM [34]: 2%
